Experimental data taken from US4241053A, “Novel nitrosourea compounds and process for preparing the same” (Tanabe Seiyaku Co., Ltd., priority 1978, dated 1980).

Key:
[1] = test system: Ehrlich ascites carcinoma; assay: Preventive effect against the growth of Ehrlich ascites tumor (Method A); format: in vivo, mice (female ICR); settings: for inhibition in vivo at 3.12 mg/kg: 3.12 mg/kg/day i.p.; for inhibition in vivo at 12.5 mg/kg: 12.5 mg/kg/day i.p.; for inhibition in vivo at 50 mg/kg: 50 mg/kg/day i.p.; for inhibition in vivo at 1.56 mg/kg: 1.56 mg/kg/day i.p.; for inhibition in vivo at 200 mg/kg: 200 mg/kg/day i.p.; for minimal effective dose: minimum dose with 100% inhibition of ascites tumor, unit from dose column, read-out: MED (Minimum Effective Dose); for inhibition in vivo at 0.78 mg/kg: 0.78 mg/kg/day i.p.
Procedure: (§1) (A) Preventive effect against the growth of Ehrlich ascites tumor:
(§2) 10^6 tumor cells of Ehrlich ascites carcinoma were inoculated intraperitoneally into a group of five femal mice (ICR mice, body weight: 19-23 g). A test compound was dissolved in a physiological saline solution [In the case where CCNU was employed as the test compound, said compound was suspended in a physiological saline solution containing 0.1% NIKKOL HCO-60 (trademark; a surface active agent manufactured by Nikko Chemicals Co. Ltd.)] and administered intraperioneally to the mice. The administration of the test compound was begun 24 hours after the inoculation of the tumor cells and performed once a day for 5 days. The volume of ascites in the treated mice were measured after 7 days of the experiment.
(§3) ^a T = the average volume of ascites in the treated mice
(§4) C = the average volume of ascites in the untreated mice (control group of
(§5) 100% inhibition for the growth of Ehrlich ascites tumor in mice without
(§6) causing the death of said mice)
(§7) 100% inhibition for the growth of said ascites tumor)
(§8) ^e Therapeutic index = MTD/MED
(§9) *the number of mice died/the number of mice used

[2] = as above; format: in vivo, mice (female ICR); settings: mouse, in vivo, ip; maximum dose with 100% inhibition of Ehrlich ascites tumor without causing death; unit from dose column; read-out: MTD (Maximum Tolerated Dose)
Procedure: as §1, §2, §3, §4, §5, §6, §7, §8, §9

Leukemia L-1210 = assay: Effect on the life span of mice implanted with leukemic cells of L-1210 (Method B); format: in vivo, mice (male BDF1); settings: Mus musculus, L1210, ip, once a day for 5 days; for ILS at 6.25 mg/kg / responders at 6.25 mg/kg: 6.25 mg/kg/day i.p.; for ILS at 25 mg/kg / responders at 25 mg/kg: 25 mg/kg/day i.p.; for ILS at 50 mg/kg / responders at 50 mg/kg: 50 mg/kg/day i.p.
Procedure: (B) Effect on the life span of mice implanted with leukemic cells of L-1210:
10^5 leukemic cells of L-1210 were inoculated intraperitoneally into a group of four or six male mice (BDF1 mice, body weight: 19-23 g). A test compound was dissolved in a physiological saline solution and administered intraperitoneally to the mice. The administration of the test compound was begun 24 hours after the inoculation of the leukemic cells and performed once a day for 5 days. The survival days of the treated mice were observed.
^a T = the mean survival days of the treated mice
C = the mean survival days of the untreated mice (control group of mice)
^b ILS(Increase in Life Span) =-
^c 60day survivors = the number of mice survived for 60 days/the

[3] = 100 mg/kg/day i.p., once a day for 5 days
[4] = Mus musculus, Ehrlich, ip, 168 h, once a day for 5 days, read-out: Inhibition ratio
[5] = 400 mg/kg/day i.p., once a day for 5 days
[6] = Mus musculus, Ehrlich, ip, 168 h
[7] = 120 h, read-out: ILS (Increase in Life Span)
[8] = 1440 h, read-out: 60-day survivors (mice survived for 60 days/mice used) (converted)

Structure (SMILES): O=NN(CCCl)C(=O)NC1CCCCC1 [CCNU, 1-(2-chloroethyl)-1-nitroso-3-cyclohexylurea, reference compound]
- Toxic (number of mice died/number of mice used) [1, 3]: 5/5
- inhibition in vivo at 3.12 mg/kg [1, 4]: 21.1%
- inhibition in vivo at 6.25 mg/kg ([1]; Mus musculus, Ehrlich, ip, 168 h, 6.25 mg/kg/day i.p., once a day for 5 days, read-out: Inhibition ratio): 33.3%
- inhibition in vivo at 12.5 mg/kg [1, 4]: 100%
- inhibition in vivo at 50 mg/kg [1, 4]: 100%
- MTD at 168 h [2]: 50 mg/kg/day

Structure (SMILES): COC(C)CN(C(=O)N(CCCl)N=O)C1O[C@H](CO)[C@@H](O[C@H]2O[C@H](CO)[C@@H](O)[C@H](O)[C@H]2O)[C@H](O)[C@H]1O (stereo partly drawn) [Compound 1, 1-(2-chloroethyl)-1-nitroso-3-(2-methoxy-n-propyl)-3-[O-α-D-glucopyranosyl-(1→4)-D-glucopyranosyl]urea]
- Toxic (number of mice died/number of mice used) [1, 5]: 4/5
- Therapeutic index (MTD/MED) [1]: 64
- inhibition in vivo at 1.56 mg/kg [1, 4]: 4.4%
- inhibition in vivo at 3.12 mg/kg [1, 4]: 100%
- inhibition in vivo at 12.5 mg/kg [1, 4]: 100%
- inhibition in vivo at 50 mg/kg [1, 4]: 100%
- inhibition in vivo at 200 mg/kg [1, 4]: 100%
- minimal effective dose [1, 6]: 3.12 mg/kg/day
- MTD at 168 h [2]: 200 mg/kg/day

Structure (SMILES): COCC(C)N(C(=O)N(CCCl)N=O)C1O[C@H](CO)[C@@H](O[C@H]2O[C@H](CO)[C@@H](O)[C@H](O)[C@H]2O)[C@H](O)[C@H]1O (stereo partly drawn) [Compound 2, 1-(2-chloroethyl)-1-nitroso-3-(1-methyl-2-methoxy-ethyl)-3-[O-α-D-glucopyranosyl-(1→4)-D-glucopyranosyl]urea]
- ILS at 6.25 mg/kg (Leukemia L-1210; [7]): 85.7%
- ILS at 25 mg/kg (Leukemia L-1210; [7]): > 604%
- ILS at 50 mg/kg (Leukemia L-1210; [7]): > 757%
- ILS at 100 mg/kg (Leukemia L-1210; 120 h, 100 mg/kg/day i.p., read-out: ILS (Increase in Life Span)): > 757%
- responders at 6.25 mg/kg (Leukemia L-1210; [8]): 0%
- responders at 25 mg/kg (Leukemia L-1210; [8]): 75%
- responders at 50 mg/kg (Leukemia L-1210; [8]): 100%
- responders at 100 mg/kg (Leukemia L-1210; 1440 h, 100 mg/kg/day i.p., read-out: 60-day survivors (mice survived for 60 days/mice used) (converted)): 100%
- Toxic (number of mice died/number of mice used) [1, 5]: 2/5
- therapeutic index (M.T.D./M.E.D.) relative to that of GANU ([1]; Ehrlich ascites tumor, greater than that of GANU): 4 times
- Therapeutic index (MTD/MED) [1]: 128
- inhibition in vivo at 0.78 mg/kg [1, 4]: -8.6%
- inhibition in vivo at 1.56 mg/kg [1, 4]: 100%
- inhibition in vivo at 3.12 mg/kg [1, 4]: 100%
- inhibition in vivo at 12.5 mg/kg [1, 4]: 100%
- inhibition in vivo at 50 mg/kg [1, 4]: 100%
- inhibition in vivo at 200 mg/kg [1, 4]: 100%
- minimal effective dose [1, 6]: 1.56 mg/kg/day
- MTD at 168 h [2]: 200 mg/kg/day

Structure (SMILES): COCCN(C(=O)N(CCCl)N=O)C1OC[C@H](O)[C@H](O)[C@H]1O (stereo partly drawn) [Compound 3, 1-(2-chloroethyl)-1-nitroso-3-(2-methoxyethyl)-3-(L-arabinopyranosyl)urea]
- ILS at 6.25 mg/kg (Leukemia L-1210; [7]): 87.5%
- ILS at 12.5 mg/kg (Leukemia L-1210; 120 h, 12.5 mg/kg/day i.p., read-out: ILS (Increase in Life Span)): > 556%
- ILS at 25 mg/kg (Leukemia L-1210; [7]): > 733%
- ILS at 50 mg/kg (Leukemia L-1210; [7]): > 615%
- responders at 6.25 mg/kg (Leukemia L-1210; [8]): 0%
- responders at 12.5 mg/kg (Leukemia L-1210; 1440 h, 12.5 mg/kg/day i.p., read-out: 60-day survivors (mice survived for 60 days/mice used) (converted)): 66.7%
- responders at 25 mg/kg (Leukemia L-1210; [8]): 100%
- responders at 50 mg/kg (Leukemia L-1210; [8]): 83.3%
- Toxic (number of mice died/number of mice used) [1, 3]: 3/5
- Therapeutic index (MTD/MED) [1]: 128
- inhibition in vivo at 0.09 mg/kg ([1]; Mus musculus, Ehrlich, ip, 168 h, 0.09 mg/kg/day i.p., once a day for 5 days, read-out: Inhibition ratio): 13.5%
- inhibition in vivo at 0.19 mg/kg ([1]; Mus musculus, Ehrlich, ip, 168 h, 0.19 mg/kg/day i.p., once a day for 5 days, read-out: Inhibition ratio): 55.6%
- inhibition in vivo at 0.39 mg/kg ([1]; Mus musculus, Ehrlich, ip, 168 h, 0.39 mg/kg/day i.p., once a day for 5 days, read-out: Inhibition ratio): 100%
- inhibition in vivo at 0.78 mg/kg [1, 4]: 100%
- inhibition in vivo at 3.12 mg/kg [1, 4]: 100%
- inhibition in vivo at 12.5 mg/kg [1, 4]: 100%
- inhibition in vivo at 50 mg/kg [1, 4]: 100%
- minimal effective dose [1, 6]: 0.39 mg/kg/day
- MTD at 168 h [2]: 50 mg/kg/day
